Drawing on patent US9139532B2, “Pyrazolyl guanidine F1F0-atpase inhibitors and therapeutic uses thereof” (Lycera Corporation, priority 2010, dated 2015), this text covers IC50 and EC50 for 20 compounds.

Read-outs that look alike come from different tables or passages of the source.

For one assay, the target named is T1, F1F0-ATPase (Bos taurus, UniProt P13621).
T1 construct: from tissue
Description: Inhibition of F1F0-ATPase activity in synthesizing ATP. It counts as biochemical. Particulars: inhibition of ATP synthesis by F1F0-ATPase; read-out: ATP Syn IC50.

A further assay concerns Ramos cells. Description: Cytotoxicity in Ramos cells. Particulars: cytotoxicity in Ramos cells, read-out: Ramos Cell EC50. It counts as cell-based.

In general, IC50 refers to the concentration that gives 50% inhibition. A word on the EC50: it is the concentration at which the effect is half-maximal. As to `CC(C)(C)NC(=NC(=O)c1ccc(C(F)(F)F)cc1)Nc1cc(-c2cccc(Cl)c2)[nH]n1` [Compound A-439], the IC50 on F1F0-ATPase was below 10 µM. For the same compound, in the assay on Ramos cells (Homo sapiens), the concentration giving a half-maximal response (EC50) is below 10 µM.
As to `O=C(N=C(NCc1ccc(F)cc1Cl)Nc1cc(-c2ccc(F)cc2)n[nH]1)c1ccc(F)c(F)c1` [Compound A-440], on F1F0-ATPase, the concentration for half-maximal inhibition (IC50) was below 10 µM. Also, the 50% effective concentration (EC50) in the assay with Ramos cells (Homo sapiens) was below 10 µM.
Consider `O=C(/N=C(/Nc1cc(F)cc(Cl)c1)Nc1cc(-c2ccc(F)cc2)n[nH]1)c1ccc(F)c(F)c1` [Compound A-441], for which, at F1F0-ATPase, the IC50 is below 10 µM. For the same compound, in the assay on Ramos cells, the 50% effective concentration (EC50) is below 10 µM.
With `O=C(N=C(Nc1cc(F)cc(Cl)c1)Nc1cc(-c2cccc(Cl)c2)[nH]n1)c1ccc(F)c(F)c1` [Compound A-442], the IC50 on F1F0-ATPase was below 10 µM. In the assay with Ramos cells (Homo sapiens), the EC50 was below 10 µM.
On to `O=C(/N=C(/NCc1ccc(F)cc1Cl)Nc1cc(-c2ccc(F)cc2)n[nH]1)c1ccc(C(F)(F)F)cc1` [Compound A-443], for which the half-inhibitory concentration (IC50) at F1F0-ATPase was below 10 µM. Further, in the assay on Ramos cells, the concentration for a half-maximal effect (EC50) is below 10 µM.
With `O=C(/N=C(/NCc1ccc(F)cc1Cl)Nc1cc(-c2cccc(Cl)c2)n[nH]1)c1ccc(C(F)(F)F)cc1` [Compound A-444], the 50% inhibitory concentration (IC50) at F1F0-ATPase was below 10 µM. For the same compound, in the assay on Ramos cells, the EC50 was above 10 µM.
The corresponding values for `O=C(/N=C(/NCc1ccc(F)cc1Cl)Nc1cc(-c2ccc(Cl)cc2)n[nH]1)c1ccc(C(F)(F)F)cc1` [Compound A-445] are below 10 µM and below 10 µM.
`O=C(N=C(Nc1cc(F)cc(Cl)c1)Nc1cc(-c2cccc(Cl)c2)[nH]n1)c1ccc(C(F)(F)F)cc1` [Compound A-446]: on F1F0-ATPase, the IC50 is below 10 µM. For the same compound, in the assay with Ramos cells (Homo sapiens), the EC50 is above 10 µM.
Take `O=C(/N=C(/Nc1cc(F)cc(Cl)c1)Nc1cc(-c2ccc(Cl)cc2)n[nH]1)c1ccc(C(F)(F)F)cc1` [Compound A-447]: the IC50 at F1F0-ATPase was below 10 µM. Besides, in the assay on Ramos cells, the EC50 was above 10 µM.
With `CC(C)(C)NC(=NC(=O)c1cccc(C(F)(F)F)c1)Nc1cc(-c2ccc(F)cc2)n[nH]1` [Compound A-448], on F1F0-ATPase, the 50% inhibitory concentration (IC50) is below 10 µM. For the same compound, the concentration for a half-maximal effect (EC50) in the assay with Ramos cells (Homo sapiens) is below 10 µM.
`O=C(/N=C(/NCc1ccc(F)cc1Cl)Nc1cc(-c2ccc(F)cc2)n[nH]1)c1cccc(C(F)(F)F)c1` [Compound A-449]: at F1F0-ATPase, the 50% inhibitory concentration (IC50) is below 10 µM. In addition, the EC50 in the assay with Ramos cells was below 10 µM.
In the case of `O=C(N=C(Nc1cc(F)cc(Cl)c1)Nc1cc(-c2ccc(F)cc2)n[nH]1)c1cccc(C(F)(F)F)c1` [Compound A-450], the half-inhibitory concentration (IC50) on F1F0-ATPase is below 10 µM. Further, the half-maximal effective concentration (EC50) in the assay with Ramos cells (Homo sapiens) was below 10 µM.
In the case of `CC(C)(C)N/C(=N/C(=O)c1cccc(Cl)c1)Nc1cc(-c2ccc(F)cc2)n[nH]1` [Compound A-451], on F1F0-ATPase, the IC50 was below 10 µM. In addition, the concentration giving a half-maximal response (EC50) in the assay on Ramos cells was below 10 µM.
On to `O=C(N=C(NCc1ccc(F)cc1Cl)Nc1cc(-c2ccc(F)cc2)n[nH]1)c1cccc(Cl)c1` [Compound A-452], for which the IC50 at F1F0-ATPase was below 10 µM. For the same compound, the concentration giving a half-maximal response (EC50) in the assay with Ramos cells (Homo sapiens) was below 10 µM.
`CC(C)(C)N/C(=N/C(=O)c1ccc(Cl)cc1)Nc1cc(-c2ccc(F)cc2)n[nH]1` [Compound A-453]: the IC50 at F1F0-ATPase is below 10 µM. Besides, in the assay on Ramos cells, the EC50 was below 10 µM.
For `O=C(/N=C(/NCc1ccc(F)cc1Cl)Nc1cc(-c2ccc(F)cc2)n[nH]1)c1ccc(Cl)cc1` [Compound A-454], at F1F0-ATPase, the IC50 is below 10 µM. Moreover, the EC50 in the assay with Ramos cells is below 10 µM.
For the compound `O=C(/N=C(/Nc1cc(F)cc(Cl)c1)Nc1cc(-c2ccc(F)cc2)n[nH]1)c1ccc(Cl)cc1` [Compound A-455], the concentration for half-maximal inhibition (IC50) on F1F0-ATPase is below 10 µM. For the same compound, the EC50 in the assay with Ramos cells is below 10 µM.
As to `CC(C)(C)N/C(=N/C(=O)c1cccc(F)c1)Nc1cc(-c2ccc(F)cc2)n[nH]1` [Compound A-456], the IC50 at F1F0-ATPase was below 10 µM. Moreover, the EC50 in the assay on Ramos cells is below 10 µM.
Turning to `O=C(/N=C(/NCc1ccc(F)cc1Cl)Nc1cc(-c2ccc(F)cc2)n[nH]1)c1cccc(F)c1` [Compound A-457], on F1F0-ATPase, the half-maximal inhibitory concentration (IC50) was below 10 µM. Further, the EC50 with Ramos cells is below 10 µM.
Consider `O=C(/N=C(/Nc1cc(F)cc(Cl)c1)Nc1cc(-c2ccc(F)cc2)n[nH]1)c1cccc(F)c1` [Compound A-458], for which, on F1F0-ATPase, the concentration for half-maximal inhibition (IC50) was below 10 µM. In addition, the concentration giving a half-maximal response (EC50) with Ramos cells was below 10 µM.
